Target: T1, ligand binding domain of the human mineralocorticoid receptor (hMR LBD) (Homo sapiens, UniProt P08235)
T1 construct: made in house; host or cells: Sf9 insect cells (baculovirus, pFastBac)
T1 sequence (P08235 729-984): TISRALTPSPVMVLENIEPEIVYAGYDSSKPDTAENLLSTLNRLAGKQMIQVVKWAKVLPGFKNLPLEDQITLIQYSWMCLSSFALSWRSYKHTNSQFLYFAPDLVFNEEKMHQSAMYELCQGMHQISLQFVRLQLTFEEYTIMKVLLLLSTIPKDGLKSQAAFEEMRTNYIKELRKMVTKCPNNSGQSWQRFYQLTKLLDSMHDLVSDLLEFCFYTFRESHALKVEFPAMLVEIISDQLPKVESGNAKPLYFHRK
Experiment: Mineralocorticoid receptor (MR) in vitro competitive binding assay, [3H]aldosterone displacement
Conditions: IR^TOTAL = sum of IR^AR/MR, IR^ER/MR, IR^GR/MR, IR^PR/MR
Method: Mineralocorticoid receptor (MR) binding assay: Spodoptera furgiperda (Sf9) insect cells (ATCC accession number CRL-1711) were maintained in culture in EX-CELL™ 420 serum free medium (JRH Biosciences, Inc.) at 27° C.
A recombinant baculovirus containing nucleotide sequences encoding the ligand binding domain of the human mineralocorticoid receptor (hMR) cloned into the pFastBac™ vector was generated using the Bac-to-Bac® Baculovirus Expression System Kit (Invitrogen) following the manufacturer's instructions. This recombinant baculovirus contains nucleotides 2401 through 3168 (SEQ ID NO: 13) of hMR, providing for expression of the ligand binding domain (LBD), amino acid residues 729-984 (SEQ ID NO: 14), of hMR (hMR LBD). Cultured Sf9 insect cells were transfected with this recombinant baculovirus following the manufacturer's instructions.
For the binding assay, a crude lysate of the hMR LBD-expressing insect cells was prepared. The crude lysate was diluted 12.5-fold with binding buffer (20 mM Tris-HCl pH 7.4, 1 mM EDTA, 1 mM dithiothreitol, 20 mM sodium tungstate, 50 mM KCl and 10% glycerol).
For the negative control sample, the diluted lysate was incubated with a 10 nM final concentration of the radioligand [1,2,6,7-^3H] aldosterone (Amersham Biosciences, catalogue # 434) for 3.5 h at 4° C. For test compounds and the positive control sample, the diluted lysate was incubated with various concentrations of test compound or with a 20 μM final concentration of spironolactone (Sigma, S-3378) as a reference compound for 45 min on ice, and was then incubated with a 10 nM final concentration of [1,2,6,7-^3H] aldosterone for 3.5 h at 4° C.
Using a CellHarvester (PerkinElmer, formerly Packard Biosciences), receptor/ligand complexes were retained on 96-well GF/B filters (PerkinElmer, formerly Packard Biosciences) while free radioligand passed through the filters. Scintillation counting of GF/B filter plates was performed using a TopCount NXT (PerkinElmer, formerly Packard Biosciences) to quantitate the amount of [1,2,6,7-^3H] aldosterone bound to the hMR LBD.
The IC50 of a test compound was determined from the concentration of test compound giving half-maximal displacement as obtained by nonlinear least-squares curve fitting to a one-site binding sigmoidal model using Prism 3.0 (Graph Pad Software, Inc., San Diego, US). The calculated IC50 values represent the average values calculated from the results of 1-3 experiments carried out in duplicate.
IC50 and inhibitory ratio calculations: To provide a measure of the potency of each test compound as an antagonist of MR, the IC50 of each test compound (IC50^Test) for ligand binding to MR and the IC50 of the known MR antagonists eplerenone (IC50^Ep) and spironolactone (IC50^Sp) for ligand binding to MR were used to calculate an IC50 ratio (RIC50) according to the following equations: RIC50^Ep/Test=IC50^Ep/IC50^Test and RIC50^Sp/Test=IC50^Sp/IC50^Test.
These individual inhibitory ratios were used to calculate a total inhibitory ratio (IR^TOTAL) according to the following equation: IR^TOTAL=IR^AR/MR+IR^ER/MR+IR^GR/MR+IR^PR/MR. B. Results and Discussion

SMILES: CCS[C@@H]1CC2=CC(=O)CC[C@]2(C)C2=CC[C@@]3(C)C(CC[C@@]34CCC(=O)O4)C21 (some centres unmarked) [Example 13]
- IR^TOTAL compared with the IR^TOTAL for eplerenone: at least an order of magnitude greater than the IR^TOTAL for eplerenone
- IR^TOTAL compared with the IR^TOTAL for spironolactone: at least an order of magnitude greater than the IR^TOTAL for spironolactone

— patent publication US20070066580A1, “Novel aldosterone antagonists and uses thereof” (Recordati Ireland Limited, priority 2005, published 2007)
